Test results: paper PMC3156940 (Biochimica et biophysica acta, 2011)

Biological target: KirBac1.1 (His6-KirBac1.1) (Burkholderia pseudomallei, UniProt P83698)
Conditions: 200 nM [3H]cholesterol, 0.1% CHAPS, pH 7.5, 37 °C, 2 h

Sequence of KirBac1.1 (His6-KirBac1.1) (P83698 1-333): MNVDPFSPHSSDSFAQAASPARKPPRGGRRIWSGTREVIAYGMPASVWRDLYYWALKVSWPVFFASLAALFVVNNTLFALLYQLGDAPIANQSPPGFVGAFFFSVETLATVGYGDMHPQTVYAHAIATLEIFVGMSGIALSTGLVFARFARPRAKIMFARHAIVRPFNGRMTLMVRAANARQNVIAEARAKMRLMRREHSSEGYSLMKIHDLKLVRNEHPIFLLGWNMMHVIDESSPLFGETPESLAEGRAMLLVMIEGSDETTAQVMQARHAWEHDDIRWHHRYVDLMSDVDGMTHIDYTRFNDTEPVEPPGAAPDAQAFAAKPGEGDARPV

| SMILES | competition with [3H]cholesterol |
| --- | --- |
| C[C@H](CCCC(C)(C)O)[C@H]1CC[C@H]2[C@@H]3CC=C4C[C@@H](O)CC[C@]4(C)[C@H]3CC[C@]12C [25-hydroxycholesterol] | 25-hydroxycholesterol was a significantly weaker competitor |
| CC(C)CCC[C@@H](C)[C@H]1CC[C@H]2[C@@H]3CC=C4C[C@H](O)CC[C@]4(C)[C@H]3CC[C@]12C [epicholesterol] | epicholesterol efficiently competed with cholesterol for the channel binding |
